From PubChem BioAssay AID2305 (GlaxoSmithKline (GSK), 2010)

Test system: P. falciparum 3D7 growth, pLDH absorbance
Assay: blood-stage malaria parasite growth potency – strain 3D7, dose response (AID 2305)

Row | SMILES | IC50 [nM]
1 | COc1ccc2nccc([C@@H](O)CN3CCC(NCCOc4cccc(C(F)(F)F)c4Cl)CC3)c2c1 | 150
2 | Cc1nnsc1C(=O)Nc1cccc(-c2cccc(-c3nc4ccccc4[nH]3)c2)c1 | 440
3 | Cc1noc(C)c1-c1ccc2c(Nc3ccccc3C(C)(C)C)c(C(=O)NCc3ccc(OC(C)C)cc3)cnc2c1 | 910
4 | O=C(NCc1ccc(C(=O)N2CCC(N3CCCCC3)CC2)cc1)c1cc(-c2cccc(C(F)(F)F)c2)ccc1O | 820
5 | Cc1noc(C)c1C(=O)N1CCc2cc3nccc(N4CCN5CCC[C@H]5C4)c3cc21 | 870
6 | CN1CCN(Cc2ccc(-c3ccc4ncnc(Nc5ccc(OCc6ccccc6)cc5)c4c3)o2)CC1 | 690
7 | O=C(c1ccco1)c1cn(CCOc2ccccc2)c2ccccc12 | 750
8 | N#Cc1ccccc1C1CCN(C2CCC(Nc3cc(-c4cccnc4)ccn3)CC2)CC1 (stereo not given) | 960
9 | COc1ccc(CNC2Cc3ccccc3C2)cc1-c1ccc(S(=O)(=O)NCCN2CCCC2)c(F)c1 | 720
10 | O=C(NC1CC1)c1ccc(Cn2c(SCc3cccc([N+](=O)[O-])c3)nc3ccccc3c2=O)cc1 | 760
11 | Cc1ccc(CN2CCN(c3cc4c(cc3Cl)CCN4C(=O)Cc3ccc(Cl)c(NC(=O)Nc4cccc(C#N)c4)c3)CC2)cc1 | 1130
12 | N#CCCn1nc(-c2ccc(Cl)cc2)c2c(c1=O)CCCC2 | 890
13 | Cc1cc(OCC(=O)Nc2ccc(-c3nc4ccccc4[nH]3)cc2)cc(C)c1Cl | 740
14 | O=c1cc(NCCCNCc2csc(Br)c2Sc2ccc(Cl)cc2)[nH]c2ccccc12 | 850
15 | O=C(CCc1cccc(O)c1)NCC(NCCCNc1cc(=O)c2ccccc2[nH]1)c1cc(Br)cc(Br)c1 (stereo not given) | 1170
16 | Fc1ccc2nc(-c3ccc(-c4ccc(CN5CCCCC5)cc4)cc3)[nH]c2c1 | 350
17 | O=C(/C=C/c1ccc(Cl)c(Cl)c1)N1CCC(CN2CCC(c3c[nH]c4cc5c(cc34)OCO5)CC2)CC1 | 680
18 | COc1cc(NC(=O)c2ccc(-c3ccc(C(C)=O)cc3)s2)ccc1OCCN1CCCC1 | 150
19 | CN(C)CCOc1cc(NC(=O)Nc2ccc(Cl)cc2C(F)(F)F)ccc1I | 930
20 | CC(C)CCN1CCCN(Cc2ccc(C(=O)Nc3ccc(F)c(F)c3)cc2)CC1 | 940
21 | Nc1[nH]c2ccccc2c(=O)c1-c1nc2ccccc2s1 | 300
22 | Cc1[nH]c2ccccc2c1C1=CCN(CCN2CCCc3c(Br)cccc3C2=O)CC1 | 660
23 | COc1ccc2nccc([C@@H](O)CN3CCC(NC(=O)/C=C/c4c[nH]c5c(C)cccc45)CC3)c2c1 | 130
24 | COc1cc(F)c2ncc(Cl)c([C@H](O)CN3CCC(NCc4cc5c(cn4)OCCO5)CC3)c2c1 | 100

Row | SMILES | IC50 [nM]
25 | Cc1nc(N)nc(N)c1-c1ccc(Cl)c(Cl)c1 | 80
26 | COc1cccc(C(=O)NCc2n[nH]c(=S)n2-c2ccc(Cl)c(Cl)c2)c1 | 170
27 | Cc1csc(NC2=NCCN2)n1 | 470
28 | O=C(NCc1ccco1)c1ccc(CN2CCN(C(c3ccccc3)c3ccccc3)CC2)cc1 | 790
29 | O=C(Nc1ccc(-c2nc3ccccc3[nH]2)cc1)c1cncc(Br)c1 | 810
30 | COc1ccccc1-n1c(-c2ccc3ccccc3c2)csc1=NC(=O)c1ccccc1 | 200
31 | O=C(CSc1nccn1Cc1ccco1)Nc1cc(C(F)(F)F)ccc1Cl | 820
32 | COc1ccc2nccc([C@@H](O)CN3CCC(NC(=O)c4[nH]c5ccccc5c4-c4ccccc4)CC3)c2c1 | 900
33 | Cc1ccc(O)cc1Nc1ccnc2ccc(-c3csc(CNCCN4CCOCC4)n3)cc12 | 150
34 | COc1ccc2nccc(N3CCC(CCNCc4ccc5c(n4)NC(=O)CS5)CC3)c2n1 | 230
35 | Clc1ccc(-c2csc3ncnc(Cl)c23)cc1 | 460
36 | CC(C)CC(=O)NC1CCN(Cc2c(-c3cccs3)nc3ccccc3c2C(=O)N[C@@H](C)C2CCCCC2)CC1 | 820
37 | N#Cc1cccc(NC(=O)Nc2ccc(-c3csc(-c4nc5ccccc5[nH]4)c3)cc2)c1 | 150
38 | COc1cc(Cc2cnc(N)nc2N)cc(OCCCCc2nn[nH]n2)c1OC | 290
39 | O=S(=O)(Nc1cccc(CCN2CCC(N3CCCCC3)CC2)c1)c1ccc(-c2ccccc2)cc1 | 1120
40 | CN1CCCc2ccc(NC(=O)c3ccc(-c4cc(C(F)(F)F)nn4C)s3)cc2C1 | 880
41 | CC(C)N(Cc1cnc2nc(N)nc(N)c2n1)c1ccc(Cl)c(Cl)c1 | 160
42 | C=C[C@H]1CN(CCCCCCC)CC[C@H]1CCN(C)c1ccnc2ccc(OC)cc12 | 450
43 | COc1cc(Cc2cnc(N)nc2N)cc(CC(C)O)c1O (stereo not given) | 840
44 | CC(C)(C)c1ccc(CN2CCC(NC(=O)c3ccc(-c4ccccc4F)s3)CC2)cc1 | 1200
45 | CN(CCC1CCN(C(=O)/C=C/c2ccc(Cl)c(Cl)c2)CC1)C1CCC(c2c[nH]c3ccccc23)CC1 (stereo not given) | 770
46 | CC(Cc1ccc(SC(C)(C)C)cc1)NCC(O)c1cccc(Cl)c1 (stereo not given) | 320
47 | NCc1ccc(-c2ccccc2CNC2CCN(Cc3ccccc3)CC2)cc1 | 770
48 | COc1cc(Cc2cnc(N)nc2N)cc(OC)c1OC | 750

Row | SMILES | IC50 [nM]
49 | CCCNC(=O)Nc1cc2cc(-c3cccc(CN4CCCCC4)c3)ccc2n2c(C)nnc12 | 1110
50 | CCNc1cc(C(=O)N[C@@H](Cc2ccccc2)[C@H](O)CNCc2cc(OC)cc(OC)c2)cc(N2CCCS2(=O)=O)c1 | 40
51 | OC(CNCc1ccccc1OCc1ccccc1)c1cccc(C(F)(F)F)c1 (stereo not given) | 360
52 | CC(C)(CNCc1cc(Cl)cc(Cl)c1)c1nc(-c2ccc(Cl)c(O)c2)c(-c2ccnc(N)n2)[nH]1 | 1010
53 | COc1cc(C(=O)N2CCN(C(C)C)CC2)ccc1CN(C)CCCCN1CCN(c2cccc(Cl)c2Cl)CC1 | 700
54 | O=C(Nc1nc2cc(S(=O)(=O)NCc3ccc(Cl)c(Cl)c3)ccc2n1CCCN1CCCC1)c1ccc(Cl)cc1 | 940
55 | O=C(Nc1cccc(C(F)(F)F)c1)NC1CCN(c2ccnc3cc(Cl)ccc23)C1 (stereo not given) | 120
56 | O=C(/C=C/c1ccc(Cl)cc1)NCCCCCN1CCCN(C(=O)Nc2cccc(Cl)c2)CC1 | 1000
57 | CC1(CCc2ccccc2)N=C(N)N=C(N)C1c1ccc(Cl)c(Cl)c1 (stereo not given) | 320
58 | Cc1noc(-c2ccccc2)c1NC(=O)NC1CCN(CCCCCNC(=O)/C=C/c2ccc(Cl)c(Cl)c2)CC1 | 990
59 | N#Cc1cccc(C(=O)Nc2cccc(-c3ccc(C(=O)NCCCN4CCOCC4)cc3)c2)c1 | 750
60 | COc1ccc2nccc(NCC3(O)CCC(NCc4ccc5c(n4)NC(=O)CS5)CC3)c2n1 (stereo not given) | 690
61 | CC(C)c1cc(C(=O)N[C@@H](Cc2ccccc2)[C@H](O)CNC2CCCCC2)cc(N2CCCC2=O)c1 | 120
62 | CC1Cc2ccccc2N1S(=O)(=O)c1cccc(C(=O)Nc2nc(-c3ccccn3)cs2)c1 (stereo not given) | 1320
63 | Cn1cccc1CCNCc1ccc(-c2cccc(-c3nc4ccc(F)cc4[nH]3)c2)cc1 | 1220
64 | Cc1noc(C)c1-c1cccc(CNCc2cccc(-c3cccc(-c4nc5c(C)cccc5[nH]4)c3)c2)c1 | 370
65 | CCOC(=O)CCc1cc(F)c(F)c(OC[C@H](O)CNC(C)(C)C(O)c2ccc3ccccc3c2)c1 (stereo not given in full) | 860
66 | CCCCN(CCCC)C(=NCCCCCCN=C(/N=C(/N)Nc1ccc(Cl)cc1)N(CCCC)CCCC)/N=C(/N)Nc1ccc(Cl)cc1 | 790
67 | O=c1cnc2ccc(F)cc2n1CCN1CCC(NCc2cc(-c3ccccc3)cs2)CC1 | 860
68 | Clc1cc(Nc2ccnc3ccc(Br)cc23)ccc1Oc1ccc(Cl)c2ccccc12 | 630
69 | Oc1cc(-c2nc(-c3ccccc3)[nH]c2-c2ccncc2)ccc1Cl | 810
70 | COc1ccc(-c2onc(C(F)(F)F)c2-c2cc3ccccc3o2)c(O)c1 | 860
